Legend:
H23 = experiment: Dose-dependent change in panel protein levels by western blot; conditions: 16 h
Description: (§1) Lysates were sonicated for 10 minutes, heated at 95° C. for 10 minutes, and centrifuged for 15 minutes at 20,000×g. The supernatant was cleared through a 0.22-micron filter and protein concentration was determined (BCA, BioRad, Hercules, Calif.). Lysates were subject to SDS-PAGE and subsequent immunoblot. For in vivo experiments, mouse tumor pieces from 5 mice were pooled and suspended in RAF buffer and homogenized with a high-speed blender. The homogenate was centrifuged for 5 min at 200×g. The supernatant was sonicated on ice for 2 minutes and centrifuged for 1 hr at 12,000×g. The supernatant (soluble fraction) was cleared through a 0.22-micron filter and processed as above. The pellet (insoluble fraction) was resuspended in RAF buffer with 2% SDS and DTT, heated at 95° C. and sonicated prior to processing.

A431 xenografts [1] = experiment: A431 subcutaneous xenograft study (Example 2)
H1975 = experiment: Dose-dependent change in panel protein levels by western blot; conditions: 16 h
Description: as §1

A431-ZDR tumors = experiment: Gefitinib-resistant A431-ZDR xenograft model (Example 1); type: in vivo, mice; conditions: treated vs untreated controls
Description: Lysates were sonicated for 10 minutes, heated at 95° C. for 10 minutes, and centrifuged for 15 minutes at 20,000×g. The supernatant was cleared through a 0.22-micron filter and protein concentration was determined (BCA, BioRad, Hercules, Calif.). Lysates were subject to SDS-PAGE and subsequent immunoblot. For in vivo experiments, mouse tumor pieces from 5 mice were pooled and suspended in RAF buffer and homogenized with a high-speed blender. The homogenate was centrifuged for 5 min at 200×g. The supernatant was sonicated on ice for 2 minutes and centrifuged for 1 hr at 12,000×g. The supernatant (soluble fraction) was cleared through a 0.22-micron filter and processed as above. The pellet (insoluble fraction) was resuspended in RAF buffer with 2% SDS and DTT, heated at 95° C. and sonicated prior to processing. Serum from 5 mice was pooled and depleted using two MARS-3 columns (Agilent) connected in tandem with HPLC. The unbound fraction was concentrated to a final concentration of 2 mg/ml and processed as above.

H1975 xenografts = experiment: H1975 xenograft study (Example 2)
A431 xenografts [2] = experiment: A431 xenograft model (Example 1); type: in vivo, mice
Description: . […] . Control animals received vehicle alone (20 animals).

H1650 = experiment: Dose-dependent change in panel protein levels by western blot; conditions: 16 h
Description: as §1

A431 = experiment: as above; type: cell-based, human
Description: as §1

[3] = dose-dependent, 16 h, western blot

COc1cc2ncnc(Nc3ccc(F)c(Cl)c3)c2cc1OCCCN1CCOCC1 [gefitinib]
BAG4 protein level change (H23): +
CAD17 protein level change (H23): +
CBFB protein level change (H23): N.C.
Claudin 1 protein level change (H23): N.C.
ELAVL-1 protein level change (H23): N.C.
EpCAM protein level change (H23): N.C.
HSPG2 protein level change (H23): N.C.
PDCD4 protein level change (H23): N.C.
PRDX6 protein level change (H23): N.C.
QARS protein level change (H23): N.C.
S100A9 protein level change (H23): N.C.
SERPINE1 protein level change (H23): N.C.
SNX5 protein level change (H23): N.C.
TNFAIP2 protein level change (H23): +
TROP-2 protein level change (H23): N.C.
tumor growth (A431 xenografts [1]; 50 mg/kg daily oral, vs vehicle Day 7 P=0.0102, Day 11 P=0.002, Day 15 P=0.0001): marked arrest in tumor growth
mean serum PRDX6 levels (A431 xenografts [1]; between Day 0 and Day 15, change vs vehicle P<0.0001): decreased
tumor PRDX6 (tumor lysates) (A431 xenografts [1]; day 15, vs vehicle, P=0.2185): no statistically significant difference
difference in mean change from baseline in serum PRDX6 normalized to tumor volume (A431 xenografts [1]; vs vehicle, P=0.0027): statistically significant
BAG4 protein level change (H1975): N.C.
CAD17 protein level change (H1975): N.C.
CBFB protein level change (H1975): N.C.
Claudin 1 protein level change (H1975): N.C.
ELAVL-1 protein level change (H1975): N.C.
EpCAM protein level change (H1975): N.C.
HSPG2 protein level change (H1975): N.C.
PDCD4 protein level change (H1975): N.C.
PRDX6 protein level change (H1975): N.C.
S100A9 protein level change (H1975): N.C.
SERPINE1 protein level change (H1975): N.C.
SNX5 protein level change (H1975): N.C.
TESTICAN2 protein level change (H1975): N.C.
TNFAIP2 protein level change (H1975): N.C.
TROP-2 protein level change (H1975): N.C.
tumor growth rates (A431-ZDR tumors): No differences in tumor growth rates
tumor response (tumor volumes) (H1975 xenografts; 50 mg/kg daily oral, vs vehicle): no response
mean serum PRDX6 levels (H1975 xenografts; after treatment): increased
PRDX6 levels with respect to treatment (H1975 xenografts; models carrying Iressa-resistant NSCLC xenografts): did not change
difference in mean change from baseline in serum PRDX6 (H1975 xenografts; vs vehicle, Day 4 (P=0.461), Day 10-14 (P=0.3404)): not statistically significant
difference in mean change from baseline in serum PRDX6 normalized to tumor volume (H1975 xenografts; vs vehicle, Day 4 (P=0.7922), Day 10-14 (P=0.8849)): not significant
tumor size and growth (A431 xenografts [2]; 50 mg/kg gefitinib vs untreated): significantly smaller than those in untreated mice and grew at a slower rate
panel proteins whose in vivo change was concordant with in vitro experiments (A431 xenografts [2]; A431 tumor lysates, immunoblot): 12 of the 16
BAG4 protein level change (H1650): N.C.
CAD17 protein level change (H1650): +
CBFB protein level change (H1650): +
Claudin 1 protein level change (H1650): +
ELAVL-1 protein level change (H1650): +
EpCAM protein level change (H1650): +
HSPG2 protein level change (H1650): +
PDCD4 protein level change (H1650): +
PRDX6 protein level change (H1650): +
QARS protein level change (H1650): +
S100A9 protein level change (H1650): N.C.
SERPINE1 protein level change (H1650): +
SNX5 protein level change (H1650): N.C.
TESTICAN2 protein level change (H1650): N.C.
TNFAIP2 protein level change (H1650): +
TROP-2 protein level change (H1650): +
VAMP3, KLF5, and GLTSCR2 level (A431; 100 nM): marginal increase
level of all other verified proteins (A431; 100, 500, and 1,000 nM, 16 hrs, western blot): dose-dependent increase
ELAVL-1 response at higher doses (A431; 500 and 1,000 nM vs 100 nM, 16 hrs, western blot): not amplified at higher doses
BAG4 protein level change (A431; [3]): +
CAD17 protein level change (A431; [3]): +
CBFB protein level change (A431; [3]): +
Claudin 1 protein level change (A431; [3]): +
ELAVL-1 protein level change (A431; [3]): +
EpCAM protein level change (A431; [3]): +
HSPG2 protein level change (A431; [3]): +
PDCD4 protein level change (A431; [3]): +
PRDX6 protein level change (A431; [3]): +
QARS protein level change (A431; [3]): +
S100A9 protein level change (A431; [3]): +
SERPINE1 protein level change (A431; [3]): +
SNX5 protein level change (A431; [3]): −
TESTICAN2 protein level change (A431; [3]): +
TNFAIP2 protein level change (A431; [3]): +
TROP-2 protein level change (A431; [3]): +

Source: patent US9588122B2, “Methods of treating cancer sensitive to anti-EGFR therapy and modifying treatment using peroxiredoxin 6 biomarker” (The Board of Trustees of the Leland Stanford Junior …, priority 2013, dated 2017)
